A word on the IC50: it is the concentration needed to halve the response being measured.

The subject of one experiment is HEK293 cells expressing ΔCR PrP. Put plainly: cells. Also on record: Emax: dose or concentration left out as unconfirmed. Particulars: HEK293, 48 h, read-out: % RMAX: maximum rescuing effect, expressed as percentage of the effect of SM3(LD24) at the same concentration. In kind it is cell-based.
On to `C=CCNC(=O)CN1c2ccc(Br)cc2-c2ccccc2S1(=O)=O` [SM164], for which the Emax came to 53.7%.

Still in this experiment, the particulars now being: HEK293, 48 h; 1 μM; read-out: % RMAX: maximum rescuing effect, expressed as percentage of the effect of SM3(LD24) at the same concentration.
Take `O=C1C(N2c3ccc(Br)cc3-c3ccccc3S2(=O)=O)CCN1C1CCCCC1` (racemic) [SM11, (R,S)-3-(9-Bromo-5,5-dioxido-6H-dibenzo[c,e][1,2]thiazin-6-yl)-1-cyclohexylpyrrolidin-2-one]: the Emax at 1 µM was determined as 43.9%.

Regarding `O=C(CN1c2ccc(Br)cc2-c2ccccc2S1(=O)=O)NC1CCCC1` [SM4, 2-(9-Bromo-5,5-dioxido-6H-dibenzo[c,e][1,2]thiazin-6-yl)-N-cyclopentylacetamide], the Emax at 1 µM turned out to be 66.6%. As to `O=C(CN1c2ccc(Br)cc2-c2ccccc2S1(=O)=O)NC1CCCCCC1` [SM5, 2-(9-Bromo-5,5-dioxido-6H-dibenzo[c,e][1,2]thiazin-6-yl)-N-cycloheptylacetamide], the Emax at 1 µM is 52.8%.

With `O=C(CN1c2ccc(Br)cc2-c2ccccc2S1(=O)=O)Nc1ccccc1` [SM6, 2-(9-bromo-5,5-dioxo-6H-dibenzo[c,e][1,2]thiazin-6 (5H)-yl)-N-phenylacetamide], the Emax at 1 µM amounted to 48.1%.

`O=C(CN1c2ccccc2-c2ccccc2S1(=O)=O)NC1CCCCC1` [SM7, 2-(5,5-dioxido-6H-dibenzo[c,e][1,2]thiazin-6-yl)-N-cyclohexylacetamide]: the Emax at 1 µM was determined as 55.9%. The same measure, in the same setting: under `CN(C(=O)CN1c2ccc(Br)cc2-c2ccccc2S1(=O)=O)C1CCCCC1` [SM8, 2-(9-Bromo-5,5-dioxido-6H-dibenzo[c,e][1,2]thiazin-6-yl)-N-cyclohexyl-N-methylacetamide] stands 46.2%; under `O=S1(=O)c2ccccc2-c2cc(Br)ccc2N1CCNC1CCCCC1` [SM9, N-[2-(9-bromo-5,5-dioxido-6H-dibenzo[c,e][1,2]thiazin-6-yl)ethyl]cyclohexanamine], 45.2%. The same measure, in the same setting: under `O=C(CCN1c2ccc(Br)cc2-c2ccccc2S1(=O)=O)NC1CCCCC1` [SM10, 3-(9-Bromo-5,5-dioxido-6H-dibenzo[c,e][1,2]thiazin-6-yl)-N-cyclohexylpropanamide] stands 45.1%; under `O=C(CN1c2ccc(Br)cc2-c2ccccc2S1(=O)=O)NC1CCCCCCC1` [SM162], 71.8%; under `O=C(CN1c2ccc(Br)cc2-c2ccccc2S1(=O)=O)Nc1c(F)cccc1F` [SM163], 104%. For the compound `O=C(CN1c2ccc(Br)cc2-c2ccccc2S1(=O)=O)NC1CC1` [SM165], the Emax at 1 µM worked out at 65.6%. Turning to `O=C(CN1c2ccc(Br)cc2-c2ccccc2S1(=O)=O)NCc1ccccc1` [SM166], the Emax at 1 µM came out at 48.6%.

In the case of `O=C(CN1c2ccc(Br)cc2-c2ccccc2S1(=O)=O)NCc1ccco1` [SM167], the Emax at 1 µM turned out to be 56.6%. `CC(=O)c1cccc(NC(=O)CN2c3ccc(Br)cc3-c3ccccc3S2(=O)=O)c1` [SM168]: the Emax at 1 µM stood at 46.2%. With `CC(C)NC(=O)CN1c2ccc(Br)cc2-c2ccccc2S1(=O)=O` [SM169], the Emax at 1 µM was determined as 59.1%. Take `COCCNC(=O)CN1c2ccc(Br)cc2-c2ccccc2S1(=O)=O` [SM170]: the Emax at 1 µM turned out to be 36.9%. On the same count and under the same terms, under `Cc1cccc(NC(=O)CN2c3ccc(Br)cc3-c3ccccc3S2(=O)=O)c1` [SM171] stands 102%. With `O=C(CN1c2ccc(Br)cc2-c2ccccc2S1(=O)=O)NCC1CCCO1` (stereo not drawn) [SM172], the Emax at 1 µM was 40.6%. Still for that read-out and setting: under `O=C(CN1c2ccc(Br)cc2-c2ccccc2S1(=O)=O)NCCC1=CCCCC1` [SM173] stands 66%; under `CC(C)CNC(=O)CN1c2ccc(Br)cc2-c2ccccc2S1(=O)=O` [SM174], 56.3%. On the same count and under the same terms, under `CCC(C)NC(=O)CN1c2ccc(Br)cc2-c2ccccc2S1(=O)=O` (stereo not drawn) [SM175] stands 66.2%; under `O=C(CN1c2ccc(Br)cc2-c2ccccc2S1(=O)=O)NCc1ccccn1` [SM176], 37.9%; under `CC(C)(C)NC(=O)CN1c2ccc(Br)cc2-c2ccccc2S1(=O)=O` [SM177], 58.4%. For `O=C(CN1c2ccc(Br)cc2-c2ccccc2S1(=O)=O)NCCN1CCOCC1` [SM178], the Emax at 1 µM turned out to be 44%.

Take `CC(C)(C)NC(=O)CN1c2ccc(Cl)cc2-c2ccccc2S1(=O)=O` [SM179]: the Emax at 1 µM was determined as 59.8%. On the same count and under the same terms, under `CC(C)c1ccc2c(c1)-c1ccccc1S(=O)(=O)N2CC(=O)NC1CCCCC1` [SM180] stands 44%; under `Cc1ccc2c(c1)-c1ccccc1S(=O)(=O)N2CC(=O)NC1CCCCC1` [SM181], 59.4%.

With `O=C(CN1c2ccc(F)cc2-c2ccccc2S1(=O)=O)NC1CCCC1` [SM219], the Emax at 1 µM came out at 54%. In the case of `O=C(CN1c2ccc(Br)cc2-c2ccccc2S1(=O)=O)NCCCn1ccnc1` [SM220], the Emax at 1 µM is 51.7%.

On to `O=C(CN1c2ccc(Br)cc2-c2ccccc2S1(=O)=O)Nc1cccnc1` [SM221], for which the Emax at 1 µM stood at 44.9%.

As for `O=C(CN1c2ccc(Br)cc2-c2ccccc2S1(=O)=O)Nc1ccc(F)cc1` [SM222], the Emax at 1 µM came to 85.1%. As to `CC(C)C(NC(=O)CN1c2ccc(Br)cc2-c2ccccc2S1(=O)=O)C(C)C` [SM223], the Emax at 1 µM stood at 54.7%.

On to `O=C(CN1c2ccc(F)cc2-c2ccccc2S1(=O)=O)NC12CC3CC(CC(C3)C1)C2` [SM224], for which the Emax at 1 µM was 71.5%. Regarding `COc1ccc2c(c1)-c1ccccc1S(=O)(=O)N2CC(=O)NC1CCCCC1` [SM225, N-Cyclohexyl-2-(9-methoxy-5,5-dioxido-6H-dibenzo[c,e][1,2]thiazin-6-yl)acetamide], the Emax at 1 µM stood at 61.5%. Still for that read-out and setting: under `O=C(CN1c2ccc(O)cc2-c2ccccc2S1(=O)=O)NC1CCCCC1` [SM226, N-Cyclohexyl-2-(9-hydroxy-5,5-dioxido-6H-dibenzo[c,e][1,2]thiazin-6yl)acetamide] stands 37.9%.

For `O=C(CN1c2c(Br)cccc2-c2ccccc2S1(=O)=O)NC1CCCCC1` [SM227, 2-(7-Bromo-5,5-dioxido-6H-dibenzo[c,e][1,2]thiazin-6-yl)-N-cyclohexylacetamide], the Emax at 1 µM was determined as 41.1%. The same measure, in the same setting: under `CN(C)CCOc1ccc2c(c1)-c1ccccc1S(=O)(=O)N2CC(=O)NC1CCCCC1` [SM230, N-Cyclohexyl-2-[9-[2-(dimethylamino)ethoxy]-5,5-dioxido-6H-dibenzo[c,e][1,2]thiazin-6-yl]acetamide] stands 44.9%; under `O=C(CN1c2ccc(Cl)cc2-c2ccccc2S1(=O)=O)NC1CCCCC1` [SM254, 2-(9-chloro-5,5-dioxido-6H-dibenzo[c,e][1,2]thiazin-6-yl)-N-cyclohexylacetamide], 127%; under `O=C(CN1c2cc(Cl)c(F)cc2-c2ccccc2S1(=O)=O)NC1CCCCC1` [SM336, 2-(8-chloro-9-fluoro-5,5-dioxido-6H-dibenzo[c,e][1,2]thiazin-6-yl)-N-cyclohexylacetamide], 119%. Same read-out and setting: under `O=C(CN1c2ccc(F)c(Cl)c2-c2ccccc2S1(=O)=O)NC1CCCCC1` [SM337, 2-(10-chloro-9-fluoro-5,5-dioxido-6H-dibenzo[c,e][1,2]thiazin-6-yl)-N-cyclohexylacetamide] stands 109%; under `O=C(CN1c2cc(C(F)(F)F)ccc2-c2ccccc2S1(=O)=O)NC1CCCCC1` [SM338, N-cyclohexyl-2-[5,5-dioxido-8-(trifluoromethyl)-6H-dibenzo[c,e][1,2]thiazin-6-yl]acetamide], 87.6%.

In the case of `O=C(CN1c2cccc(C(F)(F)F)c2-c2ccccc2S1(=O)=O)NC1CCCCC1` [SM339, N-cyclohexyl-2-[5,5-dioxido-10-(trifluoromethyl)-6H-dibenzo[c,e][1,2]thiazin-6-yl]acetamide], the Emax at 1 µM amounted to 112%.

As to `CSc1ccc2c(c1)-c1ccccc1S(=O)(=O)N2CC(=O)NC1CCCCC1` [SM340, N-cyclohexyl-2-[9-(methylthio)-5,5-dioxido-6H-dibenzo[c,e][1,2]thiazin-6-yl]acetamide], the Emax at 1 µM turned out to be 23%. On to `O=C(CN1c2cccc(Cl)c2-c2ccccc2S1(=O)=O)NC1CCCCC1` [SM585, 2-(10-chloro-5,5-dioxido-6H-dibenzo[c,e][1,2]thiazin-6-yl)-N-cyclohexylacetamide], for which the Emax at 1 µM was found to be 71.7%. Same read-out and setting: under `O=C(CN1c2cc(Cl)ccc2-c2ccccc2S1(=O)=O)NC1CCCCC1` [SM586, 2-(8-chloro-5,5-dioxido-6H-dibenzo[c,e][1,2]thiazin-6-yl)-N-cyclohexylacetamide] stands 181%.

As for `O=C(CN1c2cc(Cl)cc(Cl)c2-c2ccccc2S1(=O)=O)NC1CCCCC1` [SM587, N-cyclohexyl-2-(8,10-dichloro-5,5-dioxido-6H-dibenzo[c,e][1,2]thiazin-6-yl)acetamide], the Emax at 1 µM is 168%. Still for that read-out and setting: under `O=C(CN1c2ccc(C(F)(F)F)cc2-c2ccccc2S1(=O)=O)N[C@H]1CC[C@H](O)CC1` [SM588, 2-[5,5-dioxido-9-(trifluoromethyl)-6H-dibenzo[c,e][1,2]thiazin-6-yl]-N-(trans-4-hydroxycyclohexyl)acetamide] stands 10.6%; under `O=C(CN1c2ccc(C(F)(F)F)cc2-c2ccccc2S1(=O)=O)N[C@H]1CC[C@H](OS(=O)(=O)c2ccc([N+](=O)[O-])cc2)CC1` [SM589, trans-4-({2-[5,5-dioxido-9-(trifluoromethyl)-6H-dibenzo[c,e][1,2]thiazin-6-yl]acetyl}amino)cyclohexyl 4-nitrobenzenesulfonate], 116%; under `Cc1n[nH]c2c1N(CC(=O)NC1CCCCC1)S(=O)(=O)c1ccccc1-2` [SM879, N-cyclohexyl-2-(3-methyl-5,5-dioxidopyrazolo[4,3-c][1,2]benzothiazin-4 (1H)-yl)acetamide], 22.5%.

The same experiment, now with this note: HEK293, read-out: IC50 (rescuing dose at 50%).
`O=C(CN1c2ccc(Cl)cc2-c2ccccc2S1(=O)=O)NC1CCCCC1` [SM254, 2-(9-chloro-5,5-dioxido-6H-dibenzo[c,e][1,2]thiazin-6-yl)-N-cyclohexylacetamide]: the IC50 was 300 nM. With `O=C(CN1c2cc(Cl)c(F)cc2-c2ccccc2S1(=O)=O)NC1CCCCC1` [SM336, 2-(8-chloro-9-fluoro-5,5-dioxido-6H-dibenzo[c,e][1,2]thiazin-6-yl)-N-cyclohexylacetamide], the IC50 was determined as 100 nM. The same measure, in the same setting: under `O=C(CN1c2ccc(F)c(Cl)c2-c2ccccc2S1(=O)=O)NC1CCCCC1` [SM337, 2-(10-chloro-9-fluoro-5,5-dioxido-6H-dibenzo[c,e][1,2]thiazin-6-yl)-N-cyclohexylacetamide] stands 970 nM.

Regarding `O=C(CN1c2cccc(C(F)(F)F)c2-c2ccccc2S1(=O)=O)NC1CCCCC1` [SM339, N-cyclohexyl-2-[5,5-dioxido-10-(trifluoromethyl)-6H-dibenzo[c,e][1,2]thiazin-6-yl]acetamide], the IC50 is 340 nM. Same read-out and setting: under `O=C(CN1c2cc(Cl)ccc2-c2ccccc2S1(=O)=O)NC1CCCCC1` [SM586, 2-(8-chloro-5,5-dioxido-6H-dibenzo[c,e][1,2]thiazin-6-yl)-N-cyclohexylacetamide] stands 350 nM.

For `O=C(CN1c2cc(Cl)cc(Cl)c2-c2ccccc2S1(=O)=O)NC1CCCCC1` [SM587, N-cyclohexyl-2-(8,10-dichloro-5,5-dioxido-6H-dibenzo[c,e][1,2]thiazin-6-yl)acetamide], the IC50 amounted to 600 nM. Still for that read-out and setting: under `O=C(CN1c2ccc(C(F)(F)F)cc2-c2ccccc2S1(=O)=O)N[C@H]1CC[C@H](OS(=O)(=O)c2ccc([N+](=O)[O-])cc2)CC1` [SM589, trans-4-({2-[5,5-dioxido-9-(trifluoromethyl)-6H-dibenzo[c,e][1,2]thiazin-6-yl]acetyl}amino)cyclohexyl 4-nitrobenzenesulfonate] stands 1050 nM.

The record behind these values is patent US20240376092A1 (priority 2021, published 2024).
